Publication PMC9736374, “Design, Synthesis and Antimicrobial Properties of New Tetracyclic Quinobenzothiazine Derivatives” (International Journal of Molecular Sciences, 2022)
Converted amounts (≈) assume the structure as drawn.

Legend:
[1] = system: Staphylococcus aureus ATCC 29213; assay: MIC, microtitration broth method; format: cell-based; details: ATCC29213; SA = Staphylococcus aureus ATCC 29213; 24 h, 37 °C
[2] = system: methicillin-resistant S. aureus SA 3202 (MRSA1); assay: MIC, microtitration broth method; format: cell-based; details: Staphylococcus aureus; MRSA1 = SA 3202; 24 h, 37 °C
[3] = system: methicillin-resistant S. aureus SA 630 (MRSA2); assay: MIC, microtitration broth method; format: cell-based; details: Staphylococcus aureus; MRSA2 = SA 630; 24 h, 37 °C
[4] = system: methicillin-resistant S. aureus 63718 (MRSA3); assay: MIC, microtitration broth method; format: cell-based; details: Staphylococcus aureus; MRSA3 = 63718; 24 h, 37 °C
[5] = system: Enterococcus faecalis ATCC 29212; assay: MIC, microtitration broth method; format: cell-based; details: ATCC29212; EF = Enterococcus faecalis; 24 h, 37 °C
[6] = system: vancomycin-resistant E. faecalis VRE 342B (VRE1); assay: MIC, microtitration broth method; format: cell-based, Enterococcus faecalis; details: VRE1 = VRE 342B; 24 h, 37 °C
[7] = system: vancomycin-resistant E. faecalis VRE 368 (VRE2); assay: MIC, microtitration broth method; format: cell-based, Enterococcus faecalis; details: VRE2 = VRE 368; 24 h, 37 °C
[8] = system: vancomycin-resistant E. faecalis VRE 725B (VRE3); assay: MIC, microtitration broth method; format: cell-based, Enterococcus faecalis; details: VRE3 = VRE 725B; 24 h, 37 °C
[9] = system: M. smegmatis ATCC 700084; assay: In vitro antimycobacterial MIC, broth dilution micro-method; format: cell-based, Mycobacterium smegmatis; details: Mycolicibacterium smegmatis, ATCC700084, 72 h; MS = M. smegmatis ATCC 700084; 3 days, 37 °C
[10] = system: Mycobacterium marinum CAMP 5644; assay: as above; format: cell-based; details: CAMP5644, 504 h; MM = Mycobacterium marinum CAMP 5644; 21 days, 28 °C
[11] = system: Staphylococcus aureus ATCC 29213; assay: MBC, agar aliquot subculture method; format: cell-based; details: ATCC29213; SA = Staphylococcus aureus ATCC 29213
[12] = system: methicillin-resistant S. aureus SA 3202 (MRSA1); assay: MBC, agar aliquot subculture method; format: cell-based; details: Staphylococcus aureus; MRSA1 = SA 3202
[13] = system: methicillin-resistant S. aureus SA 630 (MRSA2); assay: MBC, agar aliquot subculture method; format: cell-based; details: Staphylococcus aureus; MRSA2 = SA 630
[14] = system: methicillin-resistant S. aureus 63718 (MRSA3); assay: MBC, agar aliquot subculture method; format: cell-based; details: Staphylococcus aureus; MRSA3 = 63718
[15] = system: Enterococcus faecalis ATCC 29212; assay: MBC, agar aliquot subculture method; format: cell-based; details: ATCC29212; EF = Enterococcus faecalis
[16] = system: vancomycin-resistant E. faecalis VRE 342B (VRE1); assay: MBC, agar aliquot subculture method; format: cell-based, Enterococcus faecalis; details: VRE1 = VRE 342B
[17] = system: vancomycin-resistant E. faecalis VRE 368 (VRE2); assay: MBC, agar aliquot subculture method; format: cell-based, Enterococcus faecalis; details: VRE2 = VRE 368
[18] = system: vancomycin-resistant E. faecalis VRE 725B (VRE3); assay: MBC, agar aliquot subculture method; format: cell-based, Enterococcus faecalis; details: VRE3 = VRE 725B
[19] = system: normal human dermal fibroblasts (NHDF); assay: In vitro cell viability, WST-1 assay; format: cell-based; details: 72 h
Protocol: Compounds were evaluated for their antiproliferative activity using NHDF (normal human dermal fibroblasts, ATCC, Manassas, VA, USA). The cultured cells were kept at 37 °C and 5% CO2. The cells were seeded (1 × 10^4 cells/well/100 μL DMEM supplemented with 10% FCS and streptomycin/penicillin) into 96-well plates (Corning Inc., Corning, NY, USA). Cells were counted using a hemocytometer (Burker chamber) and phase contrast Olympus IX50 microscope equipped with Sony SSC-DC58 AP camera and Olympus DP10 digital camera. The cell viability of the compounds was determined using the Cell Proliferation Reagent WST-1 assay (Roche Molecular Biochemicals, Mannheim, Germany). The examined cells were exposed to the tested compounds (1 mg/mL DMSO stock) for 72 h at various concentrations (0.1–100 μg/mL). The control was included in order to eliminate the DMSO effect at the concentration used. Cell cultures were incubated with WST-1 (10 μL) for 1 h. The absorbance of the samples was measured against a background control at 450 nm using a microplate reader with a reference wavelength at 600 nm. The obtained results are expressed as means of at least two independent experiments performed in triplicate.

[20] = Lipophilicity by RP-TLC; format: physicochemical; details: Tris buffer pH 7.4/acetone, read-out: logPTLC
Protocol: The lipophilicity parameters were determined experimentally using reverse phase thin-layer chromatography (RP-TLC). Chromatograms were prepared on RP-18F254s plates (1.05559.0001, Merck, Germany) precoated with nonpolar silicone oil. Plates were developed in glass chromatography chambers previously saturated with vapor of mobile phase. The mobile phase was composed of 0.2M Tris buffer (pH = 7.4) and acetone in different concentrations, i.e., 50%, 60%, 70%, 80 and 90%. The chromatograms were visualised in UV light (λ = 254 nm). Determination of the RF coefficient was carried out twice for all compounds; in all cases, acetone concentrations used. The final value of RF is the mean of the two measurements. The obtained RF coefficient was used to calculate the value of the RM parameter according to the equation: RM = log [(1/RF) − 1]. By extrapolating RM values to zero acetone concentration, a relative RM0 lipophilicity parameter was obtained, according to the equation: RM = RM0 + bC, where b is slope and C is concentration of acetone in mobile phase. Based on RM0 and the calibration curve, the values of logPTLC for compounds 6a–l were determined. The calibration curve was calculated using the relationship between RM0 of the standard molecules (acetanilide, p-kresol, p-bromoacetophenone, benzophenone, anthracene) and the corresponding logP parameters specified by the extraction method, respectively. RM0 parameters of the standard molecules and quinobenzothiazine derivatives 6a–l were determined in the same empirical conditions.

[21] = system: S. aureus ATCC 29213 respiratory activity; assay: MTT assay of bacterial respiration; format: cell-based, Staphylococcus aureus; details: for Conc.: corresponding multiple of MBC with at least 70% inhibition of respiratory activity / Conc.: lowest multiple of MIC with at least 70% inhibition of respiratory activity: S. aureus ATCC 29213, MTT, 24 h

| Compound | MIC [1] [µM] | MIC [2] [µM] | MIC [3] [µM] | MIC [4] [µM] | MIC [5] [µM] | MIC [6] [µM] | MIC [7] [µM] | MIC [8] [µM] | MIC [9] [µM] | MIC [10] [µM] | MBC [11] [µM] | MBC [12] [µM] | MBC [13] [µM] | MBC [14] [µM] | MBC [15] [µM] | MBC [16] [µM] | MBC [17] [µM] | MBC [18] [µM] | IC50 [19] [µM] | chromatographic logP [20] | also measured |
| --- | --- | --- | --- | --- | --- | --- | --- | --- | --- | --- | --- | --- | --- | --- | --- | --- | --- | --- | --- | --- | --- |
| C=CCOc1cccc2c1Nc1c(c[n+](C)c3ccccc13)S2 [Compound 6f, 11-allyloxy-5-methyl-12H-quino[3,4-b][1,4]benzothiazinium chloride] | 359 | 359 | 359 | 179 | 179 | 359 | 359 | 179 | 89.6 | 44.8 | 359 | 359 | 359 | 359 | 359 | 359 | 359 | 179 | > 100 | 2.29 | – |
| Cc1onc(-c2ccccc2)c1C(=O)N[C@@H]1C(=O)N2[C@@H]1SC(C)(C)[C@@H]2C(=O)O [OXA, oxacillin, reference compound] | 1.25 (≈ 0.502 µg/mL) | 79.8 (≈ 32 µg/mL) | 29.7 (≈ 11.9 µg/mL) | 9.9 (≈ 3.97 µg/mL) | – | – | – | – | – | – | 1.25 (≈ 0.502 µg/mL) | 79.8 (≈ 32 µg/mL) | 29.7 (≈ 11.9 µg/mL) | 9.9 (≈ 3.97 µg/mL) | – | – | – | – | – | – | – |
| O=C(O)c1cn(C2CC2)c2cc(N3CCNCC3)c(F)cc2c1=O [CPX, ciprofloxacin, reference compound] | – | – | – | – | – | – | – | – | – | – | – | – | – | – | – | – | – | – | – | – | Conc.: corresponding multiple of MBC with at least 70% inhibition of respiratory activity [21]: 32× MIC (32× MBC); Conc.: lowest multiple of MIC with at least 70% inhibition of respiratory activity [21]: 32× MIC (32× MBC); S. aureus Respiration Inhibition ([21]; at the concentration given): 96.1% |
| C#CCOc1ccc2c(c1)Nc1c(c[n+](C)c3ccccc13)S2 [Compound 6h, 10-propargyloxy-5-methyl-12H-quino[3,4-b][1,4]benzothiazinium chloride] | 45.1 | 90.1 | 90.1 | 45.1 | 45.1 | 45.1 | 45.1 | 22.5 | 22.5 | 22.5 | 45.1 | 90.1 | 90.1 | 45.1 | 45.1 | 45.1 | 45.1 | 22.5 | > 100 | 1.74 | – |
| NNC(=O)c1ccncc1 [INH, isoniazid, reference compound] | – | – | – | – | – | – | – | – | 117 (≈ 16 µg/mL) | 467 (≈ 64 µg/mL) | – | – | – | – | – | – | – | – | – | – | – |
| CN(C)[C@@H]1C(O)=C(C(N)=O)C(=O)[C@@]2(O)C(O)=C3C(=O)c4c(O)cccc4[C@@](C)(O)[C@H]3C[C@@H]12 [TTC, tetracycline, reference compound] | 4.52 (≈ 2.01 µg/mL) | 36.1 (≈ 16 µg/mL) | 36.1 (≈ 16 µg/mL) | > 72.1 | – | – | – | – | – | – | – | – | – | – | – | – | – | – | – | – | – |
| C[n+]1cc2c(c3ccccc31)Nc1c(OCc3ccccc3)cccc1S2 [Compound 6l, 11-benzyloxy-5-methyl-12H-quino[3,4-b][1,4]benzothiazinium chloride] | 39.3 | 39.3 | 78.6 | 39.3 | 157 | 157 | 157 | 157 | 39.3 | 9.83 | 39.3 | 78.6 | 78.6 | 39.3 | 157 | 157 | 157 | 157 | > 100 | 3.1 | – |
| COc1cccc2c1C(=O)c1c(O)c3c(c(O)c1C2=O)C[C@@](O)(C(=O)CO)C[C@@H]3O[C@H]1C[C@H](N)[C@H](O)[C@H](C)O1 [doxorubicin, reference compound] | – | – | – | – | – | – | – | – | – | – | – | – | – | – | – | – | – | – | 5.5 | – | – |
| CC1(C)S[C@@H]2[C@H](NC(=O)[C@H](N)c3ccccc3)C(=O)N2[C@H]1C(=O)O [AMP, ampicillin, reference compound] | 5.72 (≈ 2 µg/mL) | – | – | – | 2.81 (≈ 0.982 µg/mL) | – | – | – | – | – | 5.72 (≈ 2 µg/mL) | – | – | – | 2.81 (≈ 0.982 µg/mL) | – | – | – | – | – | Conc.: corresponding multiple of MBC with at least 70% inhibition of respiratory activity [21]: 16× MIC (>16× MBC); Conc.: lowest multiple of MIC with at least 70% inhibition of respiratory activity [21]: 16× MIC (>16× MBC) |
| CO[C@H]1/C=C/O[C@@]2(C)Oc3c(C)c(O)c4c(O)c(c(/C=N/N5CCN(C)CC5)c(O)c4c3C2=O)NC(=O)/C(C)=C\C=C\[C@H](C)[C@H](O)[C@@H](C)[C@@H](O)[C@@H](C)[C@H](OC(C)=O)[C@@H]1C [RIF, rifampicin, reference compound] | – | – | – | – | – | – | – | – | 19.4 (≈ 16 µg/mL) | 2.43 (≈ 2 µg/mL) | – | – | – | – | – | – | – | – | – | – | – |
